Key:
[1] = refractive index (Na D-line) (dimensionless); settings: 293.25 K; 101.33 kPa; Liquid; Standard Abbe refractometry
[2] = Liquid; for mass density: 293.15 K, 101.33 kPa, Pycnometric method; for Normal boiling temperature: Ebulliometric method (Recirculating still)
[3] = Boiling temperature at pressure P; settings: Liquid, Ebulliometric method (Recirculating still)

CC(=O)OCCC(C)C [3-methylbutyl ethanoate]
Settings | Normal boiling temperature [°C] | mass density [kg/m3] | refractive index
[1] | – | – | 1.4008
[2] | 142.09 | 873 | –

[3]
Settings | Boiling temperature at pressure P [°C]
4.98 kPa | 59.86
10.05 kPa | 75.04
19.88 kPa | 92.10
39.98 kPa | 111.42
50.03 kPa | 118.20
60.02 kPa | 123.93
79.97 kPa | 133.43
99.82 kPa | 141.17
101.09 kPa | 141.63
120.12 kPa | 147.90
140.02 kPa | 153.64
159.98 kPa | 158.77
179.92 kPa | 163.38
199.94 kPa | 167.59

CC(C)CCO [3-methylbutan-1-ol]
Settings | Normal boiling temperature [°C] | mass density [kg/m3] | refractive index
[1] | – | – | 1.4067
[2] | 131.30 | 810 | –

[3]
Settings | Boiling temperature at pressure P [°C]
5 kPa | 62.70
10 kPa | 75.77
19.99 kPa | 90.18
40.01 kPa | 106.36
49.99 kPa | 111.97
59.99 kPa | 116.67
79.99 kPa | 124.46
100 kPa | 130.86
101.31 kPa | 131.21
120 kPa | 136.04
139.99 kPa | 141.06
159.99 kPa | 145.36
180.01 kPa | 149.28
200 kPa | 152.86
